Values quoted from earlier work as cited in article PMC9329312, “Decoding kinase-adverse event associations for small molecule kinase inhibitors” (Nature Communications, 2022).

Conditions: ref FAERS

SMILES: CCOc1cc2ncc(C#N)c(Nc3ccc(OCc4ccccn4)c(Cl)c3)c2cc1NC(=O)/C=C/CN(C)C [neratinib]
- Intra-abdominal fluid collection, % of Cases: 0.15%
- Intracranial artery dissection, % of Cases: 0.075%
- Irritability, % of Cases: 0.15%
- Ischaemic stroke, % of Cases: 0.075%
- Joint injury, % of Cases: 0.075%
- Joint stiffness, % of Cases: 0.15%
- Joint swelling, % of Cases: 0.225%
- Kidney infection, % of Cases: 0.075%
- Klebsiella infection, % of Cases: 0.075%
- Labelled drug-drug interaction medication error, % of Cases: 0.15%
- Laboratory test abnormal, % of Cases: 0.15%
- Large intestinal haemorrhage, % of Cases: 0.075%
- Large intestinal obstruction, % of Cases: 0.075%
- Lethargy, % of Cases: 0.45%
- Ligament sprain, % of Cases: 0.15%
- Lip swelling, % of Cases: 0.3%
- Liver disorder, % of Cases: 0.15%
- Liver function test increased, % of Cases: 0.45%
- Liver injury, % of Cases: 0.225%
- Localised infection, % of Cases: 0.075%
- Loss of consciousness, % of Cases: 0.3%
- Lower limb fracture, % of Cases: 0.075%
- Lower respiratory tract infection, % of Cases: 0.075%
- Lung cancer metastatic, % of Cases: 0.075%
- Lung disorder, % of Cases: 0.15%
- Lung neoplasm malignant, % of Cases: 0.375%
- Lymph node haemorrhage, % of Cases: 0.075%
- Lymphocyte count decreased, % of Cases: 0.075%
- Lymphoedema, % of Cases: 0.15%
- Magnetic resonance imaging abnormal, % of Cases: 0.075%
- Magnetic resonance imaging head abnormal, % of Cases: 0.075%
- Malaise, % of Cases: 1.5%
- Malignant ascites, % of Cases: 0.075%
- Malignant neoplasm of unknown primary site, % of Cases: 0.075%
- Malignant neoplasm progression, % of Cases: 0.45%
- Malignant pleural effusion, % of Cases: 0.075%
- Malnutrition, % of Cases: 0.15%
- Mass, % of Cases: 0.15%
- Mastectomy, % of Cases: 0.225%
- Medical procedure, % of Cases: 0.075%
- Memory impairment, % of Cases: 0.45%
- Menopausal symptoms, % of Cases: 0.075%
- Menstruation delayed, % of Cases: 0.075%
- Mental impairment, % of Cases: 0.075%
- Mesenteric artery stenosis, % of Cases: 0.075%
- Metastases to abdominal cavity, % of Cases: 0.075%
- Metastases to bone, % of Cases: 0.375%
- Metastases to central nervous system, % of Cases: 1.6%
- Metastases to liver, % of Cases: 0.3%
- Metastases to lung, % of Cases: 0.3%
- Metastases to lymph nodes, % of Cases: 0.075%
- Metastases to meninges, % of Cases: 0.075%
- Metastases to peritoneum, % of Cases: 0.075%
- Metastases to spine, % of Cases: 0.075%
- Metastatic neoplasm, % of Cases: 0.15%
- Microcytic anaemia, % of Cases: 0.075%
- Micturition urgency, % of Cases: 0.075%
- Middle ear effusion, % of Cases: 0.075%
- Migraine, % of Cases: 0.375%
- Monocyte count increased, % of Cases: 0.075%
- Monoplegia, % of Cases: 0.075%
- Mood swings, % of Cases: 0.075%
- Mouth haemorrhage, % of Cases: 0.075%
- Mouth swelling, % of Cases: 0.075%
- Mouth ulceration, % of Cases: 0.15%
- Movement disorder, % of Cases: 0.075%
- Muscle spasms, % of Cases: 4.2%
- Muscle twitching, % of Cases: 0.15%
- Muscular weakness, % of Cases: 0.375%
- Musculoskeletal chest pain, % of Cases: 0.15%
- Musculoskeletal stiffness, % of Cases: 0.3%
- Myalgia, % of Cases: 0.9%
- Myelosuppression, % of Cases: 0.075%
- Myocardial infarction, % of Cases: 0.075%
- Myopia, % of Cases: 0.075%
- Nail discolouration, % of Cases: 0.225%
- Nail disorder, % of Cases: 0.375%
- Nail growth abnormal, % of Cases: 0.075%
- Nasal congestion, % of Cases: 0.45%
- Nasal dryness, % of Cases: 0.3%
- Nasal ulcer, % of Cases: 0.075%
- Nasopharyngitis, % of Cases: 1.4%
- Nausea, % of Cases: 29.7%
- Neck pain, % of Cases: 0.15%
- Negative thoughts, % of Cases: 0.15%
- Neoplasm malignant, % of Cases: 0.075%
- Neoplasm progression, % of Cases: 0.45%
- Nephrolithiasis, % of Cases: 0.15%
- Nervous system disorder, % of Cases: 0.15%
- Nervousness, % of Cases: 0.075%
- Neuralgia, % of Cases: 0.075%
- Neuropathy peripheral, % of Cases: 1.1%
- Neutropenia, % of Cases: 0.375%
- Neutrophil count increased, % of Cases: 0.075%
- Night sweats, % of Cases: 0.15%
- Nightmare, % of Cases: 0.075%
- Ocular hyperaemia, % of Cases: 0.15%
- Oedema peripheral, % of Cases: 0.075%
- Oesophageal pain, % of Cases: 0.075%
- Off label use, % of Cases: 11.6%
- Onychalgia, % of Cases: 0.075%
- Onychoclasis, % of Cases: 0.8%
- Onycholysis, % of Cases: 0.15%
- Onychomycosis, % of Cases: 0.075%
- Oral discomfort, % of Cases: 0.3%
- Oral herpes, % of Cases: 0.075%
- Oral mucosal blistering, % of Cases: 0.225%
- Oral pain, % of Cases: 0.3%
- Oropharyngeal pain, % of Cases: 1.1%
- Orthostatic hypotension, % of Cases: 0.075%
- Osteoarthritis, % of Cases: 0.15%
- Osteonecrosis of jaw, % of Cases: 0.075%
- Oxygen saturation decreased, % of Cases: 0.075%
- Oxygen saturation increased, % of Cases: 0.075%
- PIK3CA-activated mutation, % of Cases: 0.075%
- Pain in extremity, % of Cases: 0.9%
- Pain, % of Cases: 1.4%
- Palmar-plantar erythrodysaesthesia syndrome, % of Cases: 0.3%
- Palpitations, % of Cases: 0.15%
- Pancreatic carcinoma, % of Cases: 0.075%
- Pancreatic mass, % of Cases: 0.075%
- Pancreatitis acute, % of Cases: 0.225%
- Pancreatitis, % of Cases: 0.5%
- Panic attack, % of Cases: 0.075%
- Papilloedema, % of Cases: 0.075%
- Papule, % of Cases: 0.075%
- Paraesthesia oral, % of Cases: 0.075%
- Paraesthesia, % of Cases: 0.45%
- Paranasal sinus hypersecretion, % of Cases: 0.075%
- Paranasal sinus hyposecretion, % of Cases: 0.075%
- Paronychia, % of Cases: 0.15%
- Pericardial effusion, % of Cases: 0.075%
- Periorbital swelling, % of Cases: 0.075%
- Peripheral swelling, % of Cases: 0.75%
- Pharyngitis, % of Cases: 0.075%
- Photopsia, % of Cases: 0.075%
- Photosensitivity reaction, % of Cases: 0.075%
- Physical deconditioning, % of Cases: 0.075%
- Physical disability, % of Cases: 0.075%
- Platelet count decreased, % of Cases: 0.225%
- Platelet count increased, % of Cases: 0.075%
- Pleural effusion, % of Cases: 0.225%
- Pneumonia, % of Cases: 1.1%
- Pneumonitis, % of Cases: 0.075%
- Pollakiuria, % of Cases: 0.375%
- Poor quality sleep, % of Cases: 0.075%
- Post procedural bile leak, % of Cases: 0.075%
- Post procedural infection, % of Cases: 0.075%
- Post procedural swelling, % of Cases: 0.075%
- Postoperative wound infection, % of Cases: 0.15%
- Prescribed overdose, % of Cases: 0.075%
- Prescribed underdose, % of Cases: 1.3%
- Presyncope, % of Cases: 0.075%
- Procedural pain, % of Cases: 0.075%
- Proctalgia, % of Cases: 0.075%
- Product administered to patient of inappropriate age, % of Cases: 0.075%
- Product administration error, % of Cases: 0.9%
- Product dose omission in error, % of Cases: 0.075%
- Product dose omission issue, % of Cases: 7.8%
- Product identification number issue, % of Cases: 0.075%
- Product name confusion, % of Cases: 0.075%
- Product packaging quantity issue, % of Cases: 0.075%
- Product physical issue, % of Cases: 0.15%
- Product prescribing error, % of Cases: 0.075%
- Product use in unapproved indication, % of Cases: 0.15%
- Product use issue, % of Cases: 0.15%
- Productive cough, % of Cases: 0.225%
- Prosthesis implantation, % of Cases: 0.075%
- Pruritus, % of Cases: 1.2%
- Pulmonary embolism, % of Cases: 0.075%
- Pulmonary hypertension, % of Cases: 0.075%
- Pulmonary oedema, % of Cases: 0.15%
- Pulmonary pain, % of Cases: 0.075%
